Data published in patent US9951046B2, “TRPA1 modulators” (Algomedix, Inc., priority 2014, dated 2018).
pIC50: −log10 of the molar value.

The compounds below were run against T1, human TRPA1 (Homo sapiens, UniProt O75762) (assay: Cell-based functional intracellular calcium ([Ca2+]i) assay, Fluo-4/Fluo-8, FlexStation, challenge with reference TRPA1 agonist (FFA, AITC or 4-HNE)). Details: not given.
T1 construct: expressed in transfected cells
Procedure: A stable HEK293 cell line that expresses human TRPA1 in an inducible manner was employed in this assay. […] The expression of TRPA1 was induced by including 1 μg/ml doxycycline in the culture medium. For the induced cells, ruthenium red (5 μM) was also added to minimize the constitutive TRPA1 channel activity and cells were used 14-18 hrs after induction. To measure [Ca^2+]i changes, cells were seeded in wells of 96-well plates at ˜100,000 cells/well and grown for 14-18 hrs to reach confluency. To prevent cell loss from subsequent washing, the wells were treated with 20 μg/ml polyornithine (MW>30,000, Sigma, St Louis, Mo.) for >15 min and rinsed once with Hank's balanced salt solution without Mg^2+ and Ca^2+. […] In some experiments, Fluo-8-AM was used instead of Fluo-4-AM as the calcium-sensitive fluorescent probe. Probenecid (2 mM) was included in all solutions to prevent the leakage of Fluo-4 or Fluo-8 from the cells. At the end of the incubation, cells were washed three times with ECS and placed in 80 μL of the same solution. Fluorescence changes were measured using a fluid handling integrated fluorescence plate reader, FlexStation (Molecular Devices, Sunnyvale, Calif.). Stock solutions of test compounds were initially solubilized in 100% DMSO and then serially diluted to achieve the desired final concentration. […] Drugs were diluted into ECS at 2× or 3× the desired final concentrations and delivered to the sample plate by an integrated robotic 8-channel pipettor at preprogrammed time points. […] Experiments were performed at 20-25° C. For certain experiments, 0.1% BSA was included with the cells and test compounds.
The kinetic data obtained at each test concentration of drug represents a series of fluorescent intensities as a function of time.
Using a sequential addition protocol, test compounds were initially applied to the cells loaded with Fluo-4 or Fluo-8 and fluorescence changes in each well monitored for 2.5 min. The plate was read again in a kinetic mode after a 15-30 min incubation with the test compounds after obtaining baseline values (about 30 s) and subsequent addition of challenge with a reference TRPA1 agonist. Reference TRPA1 agonists in testing each compound included at least one of flufenamic acid (FFA), allyl isothiocyanate (AITC) and 4-hydroxynonenal (4-HNE).
Antagonist activity can be expressed in terms of IC50 with respect to TRPA1 and agonist activity can be expressed in terms of EC50 with respect to TRPA1.

T1 sequence (O75762 whole entry): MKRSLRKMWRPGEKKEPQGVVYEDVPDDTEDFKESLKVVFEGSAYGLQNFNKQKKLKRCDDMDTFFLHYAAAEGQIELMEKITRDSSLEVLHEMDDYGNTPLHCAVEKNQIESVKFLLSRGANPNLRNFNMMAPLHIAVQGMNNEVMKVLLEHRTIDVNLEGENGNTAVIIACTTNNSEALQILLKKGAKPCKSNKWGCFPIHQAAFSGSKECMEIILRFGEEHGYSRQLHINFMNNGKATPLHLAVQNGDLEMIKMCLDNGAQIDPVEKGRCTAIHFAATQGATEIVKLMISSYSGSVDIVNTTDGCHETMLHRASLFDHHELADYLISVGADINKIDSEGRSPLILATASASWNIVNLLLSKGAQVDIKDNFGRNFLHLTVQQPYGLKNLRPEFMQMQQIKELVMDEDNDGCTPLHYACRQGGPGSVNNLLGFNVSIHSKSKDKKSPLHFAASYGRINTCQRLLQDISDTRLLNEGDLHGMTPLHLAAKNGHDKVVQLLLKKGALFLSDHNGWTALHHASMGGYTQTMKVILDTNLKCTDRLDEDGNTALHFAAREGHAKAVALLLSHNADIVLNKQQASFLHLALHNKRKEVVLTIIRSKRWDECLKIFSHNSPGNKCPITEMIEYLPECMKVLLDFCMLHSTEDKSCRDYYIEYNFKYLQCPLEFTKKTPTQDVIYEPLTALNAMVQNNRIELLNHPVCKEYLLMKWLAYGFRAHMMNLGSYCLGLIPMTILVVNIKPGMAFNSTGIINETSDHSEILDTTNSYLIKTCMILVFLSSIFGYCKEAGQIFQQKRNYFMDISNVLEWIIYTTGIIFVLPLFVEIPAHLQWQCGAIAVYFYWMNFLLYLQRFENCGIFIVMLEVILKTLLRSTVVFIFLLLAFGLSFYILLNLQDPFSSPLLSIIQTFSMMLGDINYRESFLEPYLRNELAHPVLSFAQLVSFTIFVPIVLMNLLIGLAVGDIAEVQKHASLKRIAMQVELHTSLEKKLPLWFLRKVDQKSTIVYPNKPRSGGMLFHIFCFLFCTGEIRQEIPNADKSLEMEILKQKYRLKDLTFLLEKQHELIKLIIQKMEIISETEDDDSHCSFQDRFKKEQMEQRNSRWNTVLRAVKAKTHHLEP

Structure (SMILES)	pIC50
O=C(c1cc(-c2cccnc2)n(-c2ccc(C(F)(F)F)c(F)c2)n1)N1CCC2(CC1)C(=O)NC(=O)N2c1ccc(F)cc1 [Compound 185]	4.60 to 5.30
O=C(c1cc(-c2ccncc2)n(-c2ccc(C(F)(F)F)cc2)n1)N1CCC2(CC1)OCCO2 [Compound 145]	4.60 to 5.30
O=C(c1cc(-c2ccncc2)n(-c2ccc(C(F)(F)F)cc2)n1)N1CCC(N2C(=O)Cc3ccccc32)CC1 [Compound 54]	< 4.60
CCCC1COC2(CCN(C(=O)c3cc(-c4ccncc4)n(-c4ccc(C(F)(F)F)c(F)c4)n3)CC2)O1 (stereo not shown) [Compound 117]	< 4.60
O=C(c1cc(-c2ccncc2)n(-c2ccc(C(F)(F)F)nc2)n1)N1CCC2(CC1)OCCO2 [Compound 166]	< 4.60
N#Cc1ccc(-n2nc(C(=O)N3C4CCC3CC3(C4)C(=O)NCN3c3ccc(F)cc3)cc2-c2cccnc2)cc1F (stereo not shown) [Compound 330]	5.30 to 9.00

Same assay, conditions: HEK293 cells expressing human TRPA1; IC50 class after addition of reference TRPA1 agonist (FFA, AITC or 4-HNE); read-out: human TRPA1-HEK Activity

Structure (SMILES)	pIC50
O=C(c1cc(-c2ccncc2)n(-c2ccc(C(F)(F)F)c(F)c2)n1)N1CCC(c2nc3ccccc3o2)CC1 [Compound 108]	< 4.60
O=C(c1cc(-c2ccncc2)n(-c2ccc(C(F)(F)F)cc2)n1)N1CCC2(CC1)C(=O)NCN2c1ccc(Cl)cc1 [Compound 56]	< 4.60
Cc1cc(N2CNC(=O)C23CCN(C(=O)c2cc(-c4cccnc4)n(-c4ccc(C#N)c(F)c4)n2)CC3)cc(C)c1F [Compound 329]	5.30 to 9.00
N#Cc1c(F)ccc2[nH]c(=O)n(C3CCN(C(=O)c4cc(-c5cccnc5)n(-c5cc(F)c(F)c(F)c5)n4)CC3)c12 [Compound 233]	5.30 to 9.00
O=C1Nc2cc(F)ccc2C2(CCN(C(=O)c3cc(-c4cccnc4)n(-c4ccc(F)c(C(F)(F)F)c4)n3)CC2)O1 [Compound 278]	5.30 to 9.00
Cn1c(=O)c(=O)n(C)c2cc(NC(=O)c3cc(-c4ccncc4)n(-c4cnccn4)n3)ccc21 [Compound 133]	< 4.60
O=C(c1cc(-c2ccccn2)n(-c2ccc(C(F)(F)F)c(F)c2)n1)N1CCC2(CC1)C(=O)NCN2c1ccc(F)cc1 [Compound 264]	4.60 to 5.30
O=C(c1cc(-c2ccncc2)n(-c2ccc(C(F)(F)F)cc2)n1)N1CCC(c2nc3ccccc3o2)CC1 [Compound 65]	< 4.60
O=C(c1cc(-c2cccnc2)n(-c2cc(F)c(F)c(F)c2)n1)N1CCC2(CC1)C(=O)NCN2c1ccc(F)cc1 [Compound 253]	5.30 to 9.00
O=C1OC2(CCN(C(=O)c3cc(-c4ccncc4)n(-c4ccc(C(F)(F)F)nc4)n3)CC2)c2ccc(Cl)cc21 [Compound 124]	< 4.60
O=C1OC2(CCN(C(=O)c3cc(-c4ccncc4)n(-c4ccc(C(F)(F)F)c(F)c4)n3)CC2)c2ccc(Cl)cc21 [Compound 103]	< 4.60
O=C(c1cc(-c2cccnc2)n(-c2ccc(C(F)(F)F)c(F)c2)n1)N1CCC2(CC1)C(=O)NCN2c1ccc(OC(F)F)cc1 [Compound 188]	5.30 to 9.00
O=C1OC2(CCN(C(=O)c3cc(-c4ccncc4)n(-c4ccc(F)c(F)c4)n3)CC2)c2ccccc21 [Compound 80]	< 4.60
CN1C(=O)NC2(CCN(C(=O)c3cc(-c4ccncc4)n(-c4ccc(C(F)(F)F)c(F)c4)n3)CC2)C1=O [Compound 118]	< 4.60
CN1C(=O)NC2(CCN(C(=O)c3cc(-c4ccncc4)n(-c4ccccc4)n3)CC2)C1=O [Compound 174]	< 4.60
CC1CC(n2c(=O)[nH]c3ccccc32)CCN1C(=O)c1cc(-c2cccnc2)n(-c2ccc(C(F)(F)F)c(F)c2)n1 (stereo not shown) [Compound 261]	5.30 to 9.00
O=C(c1cc(-c2ccncc2)n(-c2ccccc2)n1)N1CCN(c2ccc(C(F)(F)F)cn2)CC1 [Compound 32]	< 4.60
O=C(c1cc(-c2cccnc2)n(-c2cc(F)c(F)c(F)c2)n1)N1CCC(n2c(=O)[nH]c3cccnc32)CC1 [Compound 208]	5.30 to 9.00
O=C(c1cc(-c2ccncc2)n(-c2ccc(F)cc2F)n1)N1CCC2(CC1)C(=O)NCN2c1ccccc1 [Compound 152]	< 4.60
CC(C)(C)c1ccc(-n2nc(C(=O)N3CCC4(CC3)C(=O)NCN4c3ccc(F)c(F)c3)cc2-c2cccnc2)cc1 [Compound 217]	5.30 to 9.00
O=C(c1cc(-c2cccnc2)n(-c2ccc(F)c(C(F)(F)F)c2)n1)N1CCC2(CC1)C(=O)NCN2c1ccc(OC(F)F)cc1 [Compound 283]	4.60 to 5.30
CC1CN(C(=O)c2cc(-c3cccnc3)n(-c3cc(F)c(F)c(F)c3)n2)CC(C)C1n1c(=O)[nH]c2ccc(F)c(F)c21 (stereo not shown) [Compound 207]	< 4.60
O=C(c1cc(-c2ccncc2)n(-c2ccccc2)n1)N1CCC2(CC1)C(=O)NCN2c1ccccc1 [Compound 8]	4.60 to 5.30
O=C(c1cc(-c2cccnc2)n(-c2ccc(C(F)(F)F)c(F)c2)n1)N1CCC(n2c(=O)[nH]c3ccc(F)c(C(F)(F)F)c32)CC1 [Compound 196]	5.30 to 9.00
O=C(c1cc(-c2ccncc2)n(-c2ccccc2)n1)N1CCN(c2cc(C(F)(F)F)cc(C(F)(F)F)c2)CC1 [Compound 33]	< 4.60

Structure (SMILES)	pIC50
O=C(c1cc(-c2cccnc2)n(-c2ccc(F)c(C(F)(F)F)c2)n1)N1CCC(n2c(=O)[nH]c3ccc(F)c(F)c32)CC1 [Compound 241]	5.30 to 9.00
O=C(c1cc(-c2ccncc2)n(-c2ccc(C(F)(F)F)cc2)n1)N1CCC2(CC1)C(=O)NCN2c1ccccc1 [Compound 143]	4.60 to 5.30
O=C(Nc1nc(-c2ccc(C(F)(F)F)cc2)cs1)c1cc(-c2ccncc2)n(-c2ccccc2)n1 [Compound 35]	< 4.60
O=C(c1cc(-c2cccnc2)n(-c2cc(F)c(F)c(F)c2)n1)N1CCC2(CC1)C(=O)NCN2c1ccc(F)cc1F [Compound 257]	< 4.60
O=C(c1cc(-c2ccncc2)n(-c2cnccn2)n1)N1CCC2(CC1)C(=O)NCN2c1ccccc1 [Compound 167]	4.60 to 5.30
O=C(c1cc(-c2cccnc2)n(-c2ccc(F)c(C(F)(F)F)c2)n1)N1CCC(n2c(=O)[nH]c3cc(F)c(F)c(F)c32)CC1 [Compound 297]	5.30 to 9.00
O=C(Nc1ccc2c(c1)OC(F)(F)O2)c1cc(-c2ccncc2)n(-c2ccc(C(F)(F)F)c(F)c2)n1 [Compound 109]	< 4.60
N#Cc1ccc(-n2nc(C(=O)N3CCC4(CC3)C(=O)NCN4c3ccc(F)c(F)c3)cc2-c2cccnc2)cc1 [Compound 213]	5.30 to 9.00
O=C(c1cc(-c2cccnc2)n(-c2ccc(F)c(C(F)(F)F)c2)n1)N1CCC(n2c(=S)[nH]c3cc(F)c(F)c(F)c32)CC1 [Compound 298]	5.30 to 9.00
O=C(c1cc(-c2cccnc2)n(-c2ccc(C(F)(F)F)c(F)c2F)n1)N1CCC(n2c(=O)[nH]c3ccc(F)c(F)c32)CC1 [Compound 222]	5.30 to 9.00
O=C(c1cc(-c2ccccn2)n(-c2cc(F)c(F)c(F)c2)n1)N1CCC(n2c(=O)[nH]c3ccc(F)c(F)c32)CC1 [Compound 252]	4.60 to 5.30
O=C(c1cc(-c2ccncc2)n(-c2ccc(C(F)(F)F)nc2)n1)N1CCC2(CC1)C(=O)NCN2c1ccccc1 [Compound 164]	4.60 to 5.30
O=C(c1cc(-c2ccncc2)n(-c2ccc(C(F)(F)F)nc2)n1)N1CCC2(CC1)C(=O)NCN2c1ccc(F)cc1 [Compound 120]	4.60 to 5.30
N#Cc1ccc2c(c1)[nH]c(=O)n2C1CCN(C(=O)c2cc(-c3cccnc3)n(-c3cc(F)c(F)c(F)c3)n2)CC1 [Compound 229]	5.30 to 9.00
O=C(c1cc(-c2cccnc2)n(-c2ccc(I)cc2)n1)N1CCC2(CC1)C(=O)NCN2c1ccc(F)cc1 [Compound 246]	5.30 to 9.00
O=C(c1cc(-c2ccnnc2)n(-c2cc(F)c(F)c(F)c2)n1)N1CCC(n2c(=O)[nH]c3ccc(F)c(F)c32)CC1 [Compound 321]	5.30 to 9.00
N#Cc1ccc(-n2nc(C(=O)N3CCC(n4c(=O)[nH]c5ccc(F)c(F)c54)CC3)cc2-c2cccnc2)cc1F [Compound 224]	5.30 to 9.00
CN1C(=O)c2ccc(NC(=O)c3cc(-c4ccncc4)n(-c4ccccc4)n3)cc2C1=O [Compound 40]	< 4.60
O=C(c1cc(-c2ccncc2)n(-c2ccc(C(F)(F)F)cc2)n1)N1CCC(n2c(=O)[nH]c3ccccc32)CC1 [Compound 144]	4.60 to 5.30
O=C(c1cc(-c2ccncc2)n(-c2ccc(F)c(F)c2)n1)N1CCC(n2c(=O)[nH]c3ccccc32)CC1 [Compound 150]	4.60 to 5.30
Cc1ccc(-c2cc(C(=O)N3CCC4(CC3)C(=O)NCN4c3ccc(F)cc3)nn2-c2ccc(C(F)(F)F)c(F)c2)cn1 [Compound 262]	4.60 to 5.30
Cc1cc(N2CNC(=O)C23CCN(C(=O)c2cc(-c4cccnc4)n(-c4ccc(F)c(C#N)c4)n2)CC3)cc(C)c1F [Compound 249]	5.30 to 9.00
O=C(c1cc(-c2ccncc2)n(-c2cnccn2)n1)N1CCN2C(=O)OC[C@@H]2C1 [Compound 136]	4.60 to 5.30
O=C(c1cc(-c2ccncc2)n(-c2ccc(C(F)(F)F)cc2)n1)N1CC(=O)N2CCc3ccccc3C2C1 (stereo not shown) [Compound 60]	4.60 to 5.30
